This note sets out measurements from patent US20150290160A1, “Spermidine/Spermine N1-Acetyltransferase Substrates As Anti-Cancer Drug Compounds” (BIOMARK TECHNOLOGIES INC., priority 2012, published 2015).

What is called IC50 is the midpoint of a concentration-inhibition curve.

Read-outs that look alike come from different tables or passages of the source.

Series [1] concerns U2-OS osteosarcoma cell line (negative control, SSAT non-expressing). The series can be described thus: MTT cytotoxicity assay, U2-OS. It is filed as cell-based, human. Conditions: for IC50 values (in words): does not express SSAT. As for the experimental part:
(§1) Each human cancer cell line was incubated with each of the four monoamine test drugs at a range of testing concentrations. Cytotoxicity expressed as half maximal inhibitory concentration or IC50 was determined based on a (dimethyl-2-thiazolyl)-2,5-diphenyl-2H-tetrazolium bromide or MTT assay. In parallel, the expression levels of SSAT in these cell lines were measured using a RT-qPCR assay.
Cells of the ten cell lines were harvested from their established adherent cultures with trypsin EDTA, pelleted by centrifugation, and resuspended in the appropriate medium to yield a suspension of cells for each cell line.
Each of the monoamine test drugs (amantadine, rimantadine, dopamine and L-DOPA) and the positive control (spermidine) was accurately weighed, dissolved and further diluted with sterile water into a series of solutions at 100× of their target incubation concentrations. The target incubation concentrations for amantadine, rimantadine, and dopamine were 0.03, 0.1, 0.3, 1, 3, 10, 30, 100, 300 and 1000 μM. The target incubation concentrations for L-DOPA and the positive control, spermidine, were 0.1, 0.3, 1, 3, 10, 30, 100, 300 and 1000 μM.
Incubation was performed in triplicate at each drug concentration for each cell line tested. […]
(§2) After three days of incubation with substrates, an aliquot of 5 mg/mL MTT was added to each well and then incubated for 1 to 3 hours. […] An aliquot from each well was measured for absorbance at 550 nm or 555 nm on a 96-well flat bottom plate with a microplate reader and DMSO for background absorbance correction.
Cytotoxicity was determined based on treating each cell line with each of the test drugs over a range of concentrations. Following a three day incubation period cytotoxicity was measured by an MTT assay. IC50 values were deduced based on plots of cytotoxicity level expressed as percentage inhibition over the testing concentrations as shown in FIGS. 5 to 14. In parallel to each drug treatment, each cell line was also treated with spermidine as a positive control and the IC50 value for spermidine was determined for comparison.

Series [2] relates to breast cancer cell line BT-549. The series can be described thus: cells. Conditions: Homo sapiens, BT-549, 72 h, read-out: IC50 (cytotoxicity). As for the experimental part:
as §1
(§3) Cells of the ten cell lines were harvested from their established adherent cultures with trypsin EDTA, pelleted by centrifugation, and resuspended in the appropriate medium to yield a suspension of cells for each cell line. […]
as §2
(§4) Cytotoxicity was determined based on treating each cell line with each of the test drugs over a range of concentrations. Following a three day incubation period cytotoxicity was measured by an MTT assay. IC50 values were deduced based on plots of cytotoxicity level expressed as percentage inhibition over the testing concentrations as shown in FIGS. 5 to 14. […]

In the next series the test system is LNCaP. The series can be described thus: MTT cytotoxicity assay, LNCaP. As for the experimental part: as §1, §3, §2, §4
(Formazan colour is commonly taken as a measure of viable cells.)

The next series concerns NCI-H23 (lung cancer). The series can be described thus: MTT cytotoxicity assay, NCI-H23. It is filed as cell-based. The following applies: Homo sapiens, 72 h, NCI-H23, three day incubation. As for the experimental part:
as §1, §3, §2, §4

In another series the test system is T-47D. Nature of the series: MTT cytotoxicity assay, T-47D. As for the experimental part: as §1, §3, §2, §4
For series [3], the system named is SSAT over-expressing cell lines (Malme-M3 and PC-3). The series can be described thus: Percent confluency during incubation with spermidine, SSAT over-expressing cell lines. It is filed as cell-based, human. Conditions: spermidine from 22 μM to 550 μM; compared among U2-OS, HeLa, Malme-3M, PC-3, HEK293.
The subject of series [4] is human cancer cell lines (A549, H322, NCI-H23, MCF-7, T-47D, BT-549, LNCaP, PC-3, Du-145, U2-OS). Nature of the series: MTT cytotoxicity assay, across all cell lines evaluated. Conditions: 72 h, across all the cell lines evaluated, three day incubation, read-out: IC50 (cytotoxicity), range across cell lines. It is filed as cell-based. An excerpt: Three cell lines from each of lung, breast and prostate cancers have been selected based on literature SSAT expression data and used for potential cytotoxicity screening in the MTT assay. The SSAT non-expressing human osteosarcoma cell line U2-OS was used as the negative control cell line.

Series [5] concerns SSAT non-expressing cell lines (U2-OS and HeLa). Nature of the series: Percent confluency during incubation with spermidine, SSAT non-expressing cell lines. The class given is cell-based, human. Conditions: spermidine from 22 μM to 550 μM, compared among U2-OS, Malme-3M, PC-3, HEK293.

As for `N[C@@H](Cc1ccc(O)c(O)c1)C(=O)O` [L-DOPA], in series [1], the “IC50 values (in words)” value was “low IC50 values”.

Take `NC12CC3CC(CC(C3)C1)C2` [amantadine, Amantadine]: the figures for the IC50 (in series [2]; in the series on NCI-H23 (lung cancer)) were 1160 µM and 1600 µM, respectively. In addition, the “cytotoxicity (in words)” value in the series with LNCaP (LNCaP, over-expresses SSAT (>5-fold change)) is “high cytotoxicity”; in the series on T-47D (T-47D, over-expresses SSAT (>2 fold change)) it was “high cytotoxicity”.

For `NCCc1ccc(O)c(O)c1` [dopamine, Dopamine], the IC50 in series [1] (Homo sapiens, U2OS, 72 h, three day incubation, MTT) was 34.1 µM; in series [2], 52 µM. In series [1], the “IC50 values (in words)” value is listed as “low IC50 values”.

`CC(N)C12CC3CC(CC(C3)C1)C2` (stereo not shown) [rimantadine, Rimantadine]: the “cytotoxicity (in words)” value with LNCaP and with T-47D was “high cytotoxicity” throughout.

Consider `NCCCCNCCCN` [spermidine, Spermidine], for which the “relative cell viability, expressed as percent confluency” value in series [3] was “lowest”; in series [5] it was “highest”. Further, the half-inhibitory concentration (IC50) in series [4] was in the range of 3.72 to 32.7 µM.
